Here are results for nine compounds from patent US11786597B2, “Ionic liquids for transdermal drug delivery” (priority 2013, dated 2023).

Where “and” joins values, the source holds several entries; their conditions need not be identical. Equal entries are not always repeated. Where two headings read alike, the source gives them in different places. Marks after values point to notes of the source that are not given here.

Series [1] in a line: Determination of lipophilicity (octanol/water distribution by UV absorbance). To be noted: for percent in octanol: after extraction with water. Type of series: physicochemical. The method, then:
A 250 mL volume of n-octanol was shaken with 100 mL of ddH2O and left overnight. […]
The absorption of the octanol layer and water layers were measured and compared with the absorbance of the stock solutions. Measurements were repeated three times and the distribution coefficients were reported as the average. The percent of IL in octanol was calculated as the absorbance of the octanol layer after extraction divided by the absorbance of IL in octanol before extraction. The water/octanol distribution coefficient was calculated as the logarithm of the percent of IL in octanol divided by the percent of IL in water.

The subject of series [2] is Normal human bronchial epithelial (NHBE) cells. Description: WST-1 proliferation assay, 24 h exposure to diluted ILs. The settings on record: for IC50: NHBE cells. The method, then:
Normal human bronchial epithelial (NHBE) cells were purchased (Lonza, Walkersville, MD) and cultured using bronchial epithelial cell growth media (BEGM, Clonetics Bullet Kit, Lonza, Walkersville, MD) on 100 mm tissue culture treated Petri dishes (Santa Cruz Biotechnologies, Santa Cruz, CA) coated with 50 μg/mL type I rat tail collagen (BD Biosciences, Bedford, MA). Cells were stored in an incubator with a humidified atmosphere at 37° C. and 5% CO2. Cells were fed two times weekly and passaged via trypsinization. Experimentation was performed in triplicate on cells harvested from passages 3 to 7.
NHBE cells were plated in 96-well tissue culture plates at a concentration of 1.5×10^4 cells/well in a volume of 200 μL and allowed to acclimate overnight. On the day of experimentation, treatment plates were prepared using stock ionic liquid diluted in BEGM and then serially diluted 3-fold for a total of 7 concentrations. The 96-well plates containing cells were then aspirated and the treatments (150 μL/well) were carefully transferred from the prep plate to the cells. Cells were exposed to the ionic liquids for 24 hours. Two hours prior to the end of the exposure time, positive control cell wells were aspirated, and a solution of 1% Triton-100 (150 μL/well) was added.
To assess cellular proliferation, water-soluble tetrazolium (WST-1) reagent (Clontech, Mountain View, CA) was added directly to cells, at a 1:10 dilution of the remaining media volume (7.5 μL of WST-1 reagent was added per 75 μL remaining cell culture media). NHBE cells exposed to media only and 1% Triton in BEGM were included as controls. Ionic liquid controls at the highest concentrations tested were included in wells without cells to rule out ionic liquid/assay reagent interference.

The nature of series [3]: Viscosity (Viscolab 3000 viscometer). Type of series: physicochemical. How it is done:
Viscosity was measured on 1 mL samples with a Viscolab 3000 viscometer (Cambridge Viscosity, Medford, MA). […] Low-temperature differential scanning calorimetry (DSC) was performed on a DSC882e instrument (Mettler-Toledo Inc., Columbus, Ohio) under N2 atmosphere over two complete scans of a temperature range of −60 to 120° C. with a ramp rate of 10° C. per minute and a sample size of 18-21 mg in an aluminum crucible.

The next series is described as follows: Conductivity of neat IL. Type of series: physicochemical. The method, then:
(§1) Determinations of conductivity were made on an ION450 benchtop meter (Radiometer Analytical) with a 2-pole electrode designed for use in viscous liquids (Radiometer Analytical CDC241-9) and calibrated with KCl. Conductivity was measured three times per sample on stirred 3 mL volumes of neat IL at 25° C. Density was measured three times per IL using a 1 mL volumetric flask and an analytical balance.

A short description of series [4]: Density (volumetric flask and balance). The series is classed as physicochemical. How it is done:
as §1

The nature of series [5]: Calculations of molarity and ionic strength. Type of series: physicochemical. The settings on record: neat IL, Table 5.
Series [6] is described as follows: Solubility in water (physical characterization). The settings on record: 25° C.
The test system of a further series is porcine skin. Description: Skin transport of 3H-Mannitol in Franz diffusion cell. Type of series: in vitro ADME. How it is done: FIG. 1 is a schematic of the skin transport experiment set-up and analysis. Porcine skin was loaded into the Franz diffusion cell (FDC) with the stratum corneum (SC) facing up. Skin was incubated in contact with 3H-labeled drug dissolved in donor solution for 24 hrs, at 37° C., with stirring. After 24 hrs the donor solution was removed and skin thoroughly washed. The SC was separated from the epidermis by tape stripping. Ten tape strips were applied, each tape corresponding to 1 “layer” of SC. Ten tape strips were assumed to remove the entire SC. Epidermis was separated from dermis using a razor blade. Acceptor solution was collected, and drug transport into various tissue layers was quantified by scintillation counter.
3H-labeled Mannitol and Cefadroxil were obtained from American Radiolabeled Chemicals, Inc. and Moravek, respectively. FDCs were used to assess the transport enhancement of ionic liquids using a previously established protocol. Karande, et al., “Discovery of transdermal penetration enhancers by high-throughput screening”, Nat Biotechnol, 22(2): 192-7 (2004). Briefly, the acceptor chamber was filled with degassed PBS and a small stir bar added. Thawed porcine skin was clamped in place between the acceptor and donor chambers with the SC facing up. Care was taken to ensure no air bubbles resided in the acceptor chamber. Ionic liquids or PBS (control) were spiked with 3H-labeled drug (Mannitol and Cefadroxil) to a final concentration of 10 μCi/ml. 300 μL of donor solution was added to the donor chamber and incubated in contact with the SC for 24 hr, at 37° C., with stirring.
After 24 hr, the donor solution was removed, and the skin was thoroughly washed and dried.
SC was separated from epidermis by tape stripping. Ten tape strips were performed in an identical fashion, with each tape corresponding to 1 SC “layer”. Ten strips were assumed to remove the majority of the SC. Epidermis was separated from dermis with a razor blade, and the acceptor solution was collected from the acceptor chamber. Samples from each tissue layer and acceptor solution were dissolved in Soluble (Perkin Elmer, Waltham, MA) overnight and the concentration of radiolabeled solute was measured using a scintillation counter (Packard Tri-Carb 2100 TR, Meriden, CT).

Series [7] concerns P. aeruginosa (Pseudomonas) biofilm. To be noted: neat IL.
For series [8], the system named is S. enterica (Salmonella) biofilm. The settings on record: neat IL.
Where [9] appears, read: read-out: IC50 at 24 h, WST, 24 h, lower limits where solubility precluded IC50.

`CCCCCCCC/C=C\CCCCCCCC(=O)O.CCCCCCCC/C=C\CCCCCCCC(=O)[O-].C[N+](C)(C)CCO`: the “partitioning into octanol” value in [1] is listed as “partitioned well into octanol”. Moreover, in [1] (after 1 min of agitation), the “percent moving into the octanol layer” value is 95%. Further, in series [1] (Table 3), the percent in octanol is listed as 95 +/− 3%. Also, the “toxicity to human primary cells” value in [2] is “very toxic”. Besides, the midpoint of inhibition in series [2] (text b165), the IC50, lay at 0.034 mM. For the same compound, the viscosity – broadly, the resistance of a fluid to flow – was 880 cP in series [3] (25° C.), 162.3^b cP in series [3] (Table 5) and 162 cP in series [3] (text b171). The conductivity in “Conductivity of neat IL” (25° C.) was 0.087 mS/cm; in the series “Conductivity of neat IL” (Table 5), 0.0871^b mS/cm. Moreover, the density in [4] (25° C.), in series [4] (Table 5) and in series [4] (text b173) was 0.98 g/mL in each case. Further, the ionic strength in series [5] is given as 1.47 M. In addition, in [5], the molarity was 1.47 M.
For `CCCC[N+]1(C)CCCC1.O=S(=O)([N-]S(=O)(=O)C(F)(F)F)C(F)(F)F` [LANL-1, 1-Butyl-1-methylpyrrolidinium (BMP)—bistriflimide (NTf2)], in series [1], the “partitioning into octanol” value is listed as “partitioned poorly into octanol”. Moreover, the percent in octanol in series [1] (Table 3) was found to be 20% +/− 7%. The “percentage in the water phase” value in series [1] (starting concentration of 0.2 M in octanol) was determined as 51%. The “percentage not incorporated in octanol or water” value in series [1] (starting concentration of 0.2 M in octanol, third phase) was determined as 29%. Also, in series [2], the “toxicity to human primary cells” value is recorded as “low toxicity”. In series [2] (setting [9]), the IC50 (usually the midpoint of a concentration-inhibition curve) was more than 2 mM. For the same compound, the viscosity in series [3] (25° C.) is 72.7 cP; in [3] (Table 5), 72.72 cP. The conductivity in “Conductivity of neat IL” (25° C.) and in the series “Conductivity of neat IL” (Table 5) was 1.99 mS/cm in each case. The density in [4] (25° C.) and in [4] (Table 5) was 1.39 g/mL throughout. In series [5], the ionic strength was 3.28 M. Moreover, the molarity in series [5] is listed as 3.28 M.
Regarding `NC(N)=O` [LANL-6, urea-choline], the IC50 in series [2] (text b165) and in [2] (setting [9]) was more than 10 mM in each case.
`C[N+](C)(C)CCO.O=S(=O)([N-]S(=O)(=O)C(F)(F)F)C(F)(F)F` [LANL-12, choline-NTf2]: in [1] (Table 3), the percent in octanol is reported as 67 +/− 9%. For the same compound, the “log Po/w” value in [1] (octanol/water, Table 3) was 0.31. Further, the viscosity in series [3] (25° C.) and in series [3] (Table 5) was 125 cP in each case. The conductivity is 1.46 mS/cm in the series “Conductivity of neat IL” (25° C.) and 1.460 mS/cm in the series “Conductivity of neat IL” (Table 5). Also, the density – broadly, mass per unit of volume – was 1.5 g/mL and 1.53 g/mL in series [4] (25° C.); 1.54 g/mL in series [4] (Table 5). Further, the ionic strength in series [5] is given as 4.40 M. The molarity in series [5] is given as 4.40 M. Besides, the solubility in water in [6] is listed as 1.7 M.
For the compound `O=S(=O)(NS(=O)(=O)C(F)(F)F)C(F)(F)F` [LANL-12, choline-NTf2], the IC50 in [2] (setting [9]) amounted to 1.7 mM.
With `CCCCCCCC/C=C\CCCCCCCC(=O)[O-].CCCCCCCCCCCCCC[P+](CCCCCC)(CCCCCC)CCCCCC` [LANL-19, [PC14H29(C6H13)3][oleate]], in [1], the “log Po/w” value is 1.14. The percent in octanol in series [1] (Table 3) is 93 +/− 2%. The viscosity in series [3] (25° C.) was 299 cP; in [3] (Table 5), 300 cP. For the same compound, the conductivity in “Conductivity of neat IL” (25° C.) amounted to 0.016 mS/cm; in the series “Conductivity of neat IL” (Table 5), 0.0162 mS/cm. The density in series [4] (25° C.) and in [4] (Table 5) was 0.882 g/mL throughout. Moreover, the ionic strength in [5] is reported as 1.24 M. Also, in [5], the molarity is reported as 1.15 M. Moreover, the “loss/partitioning of solute to the acceptor solution” value in the series on porcine skin (3H-Mannitol) was “no additional loss of solute to the acceptor solution”. Further, the “transport enhancement into/through all layers of the skin” value in the series with porcine skin (3H-Mannitol, relative to PBS control) is given as 5-10 fold. In addition, the “skin transport properties” value in the series on porcine skin (materials in lower right portion of Walden plot) is “best skin transport properties”.
Turning to `CCCCCC(=O)[O-].CCCCCCCCCCCCCC[P+](CCCCCC)(CCCCCC)CCCCCC` [LANL-20, [PC14H29(C6H13)3][hexanoate]], the percent in octanol in [1] (Table 3) is listed as 65 +/− 14%. Further, in [1] (octanol/water, Table 3), the “log Po/w” value is reported as 0.26. In addition, the viscosity in series [3] (25° C.) and in series [3] (Table 5) was 154 cP in each case. The conductivity in “Conductivity of neat IL” (25° C.) and in “Conductivity of neat IL” (Table 5) was 0.488 mS/cm in each case. Besides, the density in [4] (25° C.) and in [4] (Table 5) was 0.912 g/mL each time. Moreover, the ionic strength in [5] is 1.63 M. Also, the molarity in [5] is on record as 1.63 M. In addition, in series [6], the “solubility in water” value was “trace”.
As to `CC(C)=CCC/C(C)=C/C(=O)[O-].CCCCCCCCCCCCCC[P+](CCCCCC)(CCCCCC)CCCCCC` [LANL-22, [PC14H29(C6H13)3][geranate]], in series [1], the “log Po/w” value amounted to 0.86. Further, in series [1] (Table 3), the percent in octanol is recorded as 88 +/− 6%. The viscosity is on record as 122 cP in series [3] (25° C.) and 122.3 cP in series [3] (Table 5). Also, the conductivity in “Conductivity of neat IL” (25° C.) and in “Conductivity of neat IL” (Table 5) was 0.156 mS/cm each time. The density in series [4] (25° C.) and in series [4] (Table 5) was 0.931 g/mL in each case. In series [5], the ionic strength was 1.43 M. Besides, the molarity in [5] is reported as 1.43 M.
choline malonate [LANL-5]: the viscosity in [3] (25° C.) was found to be 920 cP; in [3] (Table 5), 920.1 cP. The conductivity in “Conductivity of neat IL” (25° C.) and in the series “Conductivity of neat IL” (Table 5) was 0.429 mS/cm in each case. Also, the density was 1.266 g/mL in series [4] (25° C.), 1.27 g/mL in series [4] (Table 5) and 1.27 g/mL in series [4] (text b173). For the same compound, in series [5], the ionic strength is given as 5.20 M. The molarity in [5] is 5.20 M. The “anti-biofilm efficacy” value in series [7] and in [8] was “effective” throughout.
